Reference: PubChem BioAssay (NCI)
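Assay format: 96-well plates, 48-hour exposure. The concentration for full growth arrest is given as TGI.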

Key:
Assay in all cases: DTP human tumour cell line panel, 48 h
786-0 renal = test system: 786-0 renal
A498 renal = test system: A498 renal
A549 NSCLC = test system: A549 NSCLC
ACHN renal = test system: ACHN renal
BT-549 breast = test system: BT-549 breast
CAKI-1 renal = test system: CAKI-1 renal
CCRF-CEM leukemia = test system: CCRF-CEM leukemia
COLO 205 colon = test system: COLO 205 colon
DU-145 prostate = test system: DU-145 prostate
EKVX NSCLC = test system: EKVX NSCLC
HCC-2998 colon = test system: HCC-2998 colon
HCT-116 colon = test system: HCT-116 colon
HCT-15 colon = test system: HCT-15 colon
HL-60(TB) leukemia = test system: HL-60(TB) leukemia
HOP-62 NSCLC = test system: HOP-62 NSCLC
HOP-92 NSCLC = test system: HOP-92 NSCLC
HS 578T breast = test system: HS 578T breast
HT29 colon = test system: HT29 colon
IGROV1 ovarian = test system: IGROV1 ovarian
K-562 leukemia = test system: K-562 leukemia
KM12 colon = test system: KM12 colon
LOX IMVI melanoma = test system: LOX IMVI melanoma
M14 melanoma = test system: M14 melanoma
MALME-3M melanoma = test system: MALME-3M melanoma
MCF7 breast = test system: MCF7 breast
MDA-MB-231 breast = test system: MDA-MB-231 breast
MDA-MB-435 = test system: MDA-MB-435
MDA-N = test system: MDA-N
MOLT-4 leukemia = test system: MOLT-4 leukemia
NCI-H226 lung = test system: NCI-H226 lung
NCI-H23 lung = test system: NCI-H23 lung
NCI-H460 lung = test system: NCI-H460 lung
NCI-H522 lung = test system: NCI-H522 lung
NCI/ADR-RES ovarian = test system: NCI/ADR-RES ovarian
OVCAR-3 ovarian = test system: OVCAR-3 ovarian
OVCAR-4 ovarian = test system: OVCAR-4 ovarian
OVCAR-5 ovarian = test system: OVCAR-5 ovarian
OVCAR-8 ovarian = test system: OVCAR-8 ovarian
PC-3 prostate = test system: PC-3 prostate
RPMI-8226 leukemia = test system: RPMI-8226 leukemia
RXF 393 renal = test system: RXF 393 renal
SF-268 CNS = test system: SF-268 CNS
SF-295 CNS = test system: SF-295 CNS
SF-539 CNS = test system: SF-539 CNS
SK-MEL-2 melanoma = test system: SK-MEL-2 melanoma
SK-MEL-28 melanoma = test system: SK-MEL-28 melanoma
SK-MEL-5 melanoma = test system: SK-MEL-5 melanoma
SK-OV-3 ovarian = test system: SK-OV-3 ovarian
SN12C renal = test system: SN12C renal
SNB-19 CNS = test system: SNB-19 CNS
SNB-75 CNS = test system: SNB-75 CNS
SR leukemia = test system: SR leukemia
SW-620 colon = test system: SW-620 colon
T-47D breast = test system: T-47D breast
TK-10 renal = test system: TK-10 renal
U251 CNS = test system: U251 CNS
UACC-257 melanoma = test system: UACC-257 melanoma
UACC-62 melanoma = test system: UACC-62 melanoma
UO-31 renal = test system: UO-31 renal

Measured: TGI

CCCCC(=O)OC[n+]1ccc(-c2c(COC(=O)NC(C)C)c(COC(=O)NC(C)C)c3n2CCC3)cc1
> 84.4 µM: SR leukemia
> 79.8 µM: HL-60(TB) leukemia
76.5 µM: A498 renal
> 80.7 µM: MOLT-4 leukemia
> 100 µM: all other assays above

Cc1[nH]n(-c2ncc(C(=O)O)c(=O)[nH]2)c(=O)c1CCO
> 100 µM: all assays above

C=C(C(=O)OC)N1C(=O)CC(C)C1=O (stereo unspecified)
4.62 µM: CCRF-CEM leukemia
7.51 µM: ACHN renal
12.8 µM: K-562 leukemia
35.6 µM: HOP-62 NSCLC
25.5 µM: SW-620 colon
36.8 µM: A498 renal
58.8 µM: SNB-19 CNS
23.5 µM: 786-0 renal
29.6 µM: M14 melanoma | UACC-62 melanoma
37.4 µM: OVCAR-4 ovarian
33.9 µM: SK-MEL-2 melanoma
3.98 µM: HOP-92 NSCLC
22.4 µM: OVCAR-3 ovarian
5.05 µM: NCI-H522 lung
25.8 µM: UACC-257 melanoma
23.6 µM: HCT-15 colon
12.7 µM: RPMI-8226 leukemia
28.9 µM: MDA-N
70.3 µM: NCI-H226 lung
30.5 µM: MCF7 breast
10.7 µM: MOLT-4 leukemia
36.2 µM: SNB-75 CNS
6.9 µM: SR leukemia
5 µM: MALME-3M melanoma
33.5 µM: NCI-H23 lung
35.1 µM: NCI-H460 lung
35 µM: U251 CNS
44.2 µM: A549 NSCLC
17.7 µM: TK-10 renal
31.5 µM: IGROV1 ovarian
36 µM: NCI/ADR-RES ovarian | SF-539 CNS
71.2 µM: HS 578T breast
37.2 µM: MDA-MB-435
31.4 µM: HCC-2998 colon
> 72 µM: SF-295 CNS
36.4 µM: SF-268 CNS
43.1 µM: OVCAR-8 ovarian
19.5 µM: HCT-116 colon
19.1 µM: LOX IMVI melanoma
14.3 µM: COLO 205 colon
30.4 µM: PC-3 prostate
3.78 µM: HL-60(TB) leukemia
23.1 µM: SK-MEL-28 melanoma
34.1 µM: MDA-MB-231 breast
33.1 µM: T-47D breast
31.1 µM: SN12C renal
29.8 µM: DU-145 prostate | OVCAR-5 ovarian
29.9 µM: EKVX NSCLC
32.7 µM: SK-MEL-5 melanoma
26.1 µM: RXF 393 renal | UO-31 renal
43.8 µM: KM12 colon
25.2 µM: HT29 colon
98.9 µM: SK-OV-3 ovarian
30.9 µM: BT-549 breast
4.38 µM: CAKI-1 renal

CCCCCCCCCCCC(=O)NCc1ccc(OC(=O)CCCCCCCCCCC)c(OC)c1
> 57.3 µM: IGROV1 ovarian
> 72.4 µM: COLO 205 colon
12.2 µM: NCI-H522 lung
11.6 µM: CCRF-CEM leukemia
37.8 µM: HL-60(TB) leukemia
> 92.8 µM: SR leukemia
16.7 µM: SF-539 CNS
97.9 µM: PC-3 prostate
> 100 µM: all other assays above
